Values of other authors in patent US10555523B2, “Self indicating antimicrobial chemistry” (ECOLAB USA INC, priority 2015, dated 2020).

Test system: microorganisms

In the case of CC(=O)OO [Peracetic acid], the “concentration needed for biocidal activity” value is given as “greater than 80 part per million”.
